In patent publication US20080234262A1 (Wyeth, priority 2007, published 2008) one finds IC50 data, which are given here for 27 compounds.

One may read the pIC50 as the negative decadic logarithm of the IC50, by convention in mol/L.

Assay [1] deals with prostate line LNCap. Put plainly: In vitro cell culture growth assay (MTS), LNCap. To be noted: LNCap cells, three days after drug treatment. The class given is cell-based, human.
The target in assay [2] is PI3K (Homo sapiens, UniProt P42336). Nature of the assay: Fluorescence polarization assay for PI3K.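 Also: PI3K kinase reaction on PIP2 with ATP, 30-60 min, product sensed by GST-GRP with red probe in fluorescence polarization (mP), controls without enzyme and at zero time.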 The settings on record: PI3Kα; read-out: PI3Kα IC50. The class given is biochemical. On the technique in general: Polarisation of emitted light reports the rotation of a fluorescent probe.
Chain of PI3K (P42336 whole entry): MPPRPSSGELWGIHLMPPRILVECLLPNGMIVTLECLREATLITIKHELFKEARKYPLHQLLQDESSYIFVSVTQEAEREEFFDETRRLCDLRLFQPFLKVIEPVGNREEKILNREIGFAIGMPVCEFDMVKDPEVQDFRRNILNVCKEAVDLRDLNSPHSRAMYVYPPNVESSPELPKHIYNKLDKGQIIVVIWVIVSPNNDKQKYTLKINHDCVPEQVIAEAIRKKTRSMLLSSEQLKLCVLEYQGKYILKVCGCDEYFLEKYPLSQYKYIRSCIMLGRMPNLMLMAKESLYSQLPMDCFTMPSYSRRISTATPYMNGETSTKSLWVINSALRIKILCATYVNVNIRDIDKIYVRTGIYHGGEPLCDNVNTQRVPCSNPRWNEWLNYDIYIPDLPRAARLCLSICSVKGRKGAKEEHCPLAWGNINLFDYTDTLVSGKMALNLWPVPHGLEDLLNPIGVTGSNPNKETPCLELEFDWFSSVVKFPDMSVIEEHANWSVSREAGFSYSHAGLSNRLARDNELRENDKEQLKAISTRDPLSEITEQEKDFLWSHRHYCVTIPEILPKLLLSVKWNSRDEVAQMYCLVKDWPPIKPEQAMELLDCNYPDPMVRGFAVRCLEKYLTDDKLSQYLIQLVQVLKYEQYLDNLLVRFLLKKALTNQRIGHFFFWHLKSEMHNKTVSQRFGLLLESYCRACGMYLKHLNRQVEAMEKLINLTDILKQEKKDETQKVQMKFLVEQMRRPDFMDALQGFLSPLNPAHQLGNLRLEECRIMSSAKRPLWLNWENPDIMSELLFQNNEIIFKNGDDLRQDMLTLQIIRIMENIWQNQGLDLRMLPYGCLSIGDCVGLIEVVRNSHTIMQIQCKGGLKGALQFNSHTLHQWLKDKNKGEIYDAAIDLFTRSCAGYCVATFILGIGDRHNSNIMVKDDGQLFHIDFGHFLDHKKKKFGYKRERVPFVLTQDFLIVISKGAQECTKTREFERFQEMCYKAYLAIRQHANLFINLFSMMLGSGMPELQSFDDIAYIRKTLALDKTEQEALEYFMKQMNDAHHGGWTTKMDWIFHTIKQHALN
Chain of PI3K (P27986 whole entry partner): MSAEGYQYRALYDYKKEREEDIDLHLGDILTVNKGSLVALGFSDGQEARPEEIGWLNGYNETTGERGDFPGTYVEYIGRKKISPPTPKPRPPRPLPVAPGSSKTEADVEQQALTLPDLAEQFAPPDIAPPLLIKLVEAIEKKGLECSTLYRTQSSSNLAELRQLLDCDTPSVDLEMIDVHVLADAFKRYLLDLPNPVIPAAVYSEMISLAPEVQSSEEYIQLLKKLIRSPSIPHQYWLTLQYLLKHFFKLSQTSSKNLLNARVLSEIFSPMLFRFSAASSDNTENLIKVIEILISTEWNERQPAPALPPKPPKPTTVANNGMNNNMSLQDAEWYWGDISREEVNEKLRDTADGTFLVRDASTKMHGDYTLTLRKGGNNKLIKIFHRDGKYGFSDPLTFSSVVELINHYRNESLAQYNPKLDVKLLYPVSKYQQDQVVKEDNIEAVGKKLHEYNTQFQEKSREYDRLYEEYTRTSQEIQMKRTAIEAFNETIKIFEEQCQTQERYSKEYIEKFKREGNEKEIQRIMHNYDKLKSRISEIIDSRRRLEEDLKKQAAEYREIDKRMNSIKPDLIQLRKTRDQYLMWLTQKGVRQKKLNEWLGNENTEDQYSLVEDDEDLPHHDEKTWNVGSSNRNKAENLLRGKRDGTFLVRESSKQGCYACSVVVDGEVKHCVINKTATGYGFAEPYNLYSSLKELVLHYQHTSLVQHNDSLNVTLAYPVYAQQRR
For assay [3], the system named is breast line MDA468. Nature of the assay: In vitro cell culture growth assay (MTS), MDA468. It counts as cell-based, human. The settings on record: MDA468 cells, three days after drug treatment. Summed up:
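MDA468 or LNCap cells received inhibitors one day after plating and were grown for three days. Viable cell density read by MTS conversion, absorbance 490 nm, expressed as percent of control growth versus vehicle-treated cells on the same plate.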

pIC50: −log10 of the molar value. Where only a bound is given, the exact number is not on record here.

For the compound `CCn1nc(C#CCO)c2c(N3CCOCC3)nc(-c3ccc(NC(=O)Nc4cccnc4)cc3)nc21` [Compound 956, 1-{4-[1-ethyl-3-(3-hydroxyprop-1-yn-1-yl)-4-morpholin-4-yl-1H-pyrazolo[3,4-d]pyrimidin-6-yl]phenyl}-3-pyridin-3-ylurea], the negative-log IC50 (pIC50) in assay [1] (Homo sapiens, LNCaP, 72 h) is 7.33; in assay [2] it was 8.76; in assay [3] (Homo sapiens, 72 h), 7.05.
The like results for `C/C=C/C(=O)N1CCC(n2ncc3c(N4CCOCC4)nc(-c4ccc(NC(=O)NC)cc4)nc32)CC1` [Compound 756, 1-[4-(1-{1-[(2E)-but-2-enoyl]piperidin-4-yl}-4-morpholin-4-yl-1H-pyrazolo[3,4-d]pyrimidin-6-yl)phenyl]-3-methylurea] were, in that order, 6.30, 6.76 and 6.30.
The corresponding values for `c1ccc2cc(-c3nc(N4CCOCC4)c4cnn(C5CCNCC5)c4n3)ccc2c1` [Example 44] are 5.77, 4.96 and 5.85.
As to `CCOC(=O)N1CCC(n2ncc3c(N4CCOCC4)nc(-c4ccc(NC(=O)Nc5cccnc5)cc4)nc32)CC1` [Compound 816, ethyl 4-(4-morpholin-4-yl-6-{4-[(pyridin-3-ylcarbamoyl)amino]phenyl}-1H-pyrazolo[3,4-d]pyrimidin-1-yl)piperidine-1-carboxylate], the pIC50 in assay [1] (Homo sapiens, LNCaP, 72 h) is over 7.57; in assay [2] it was 7.22; in assay [3] (Homo sapiens, 72 h), over 7.57.
Turning to `CNC(=O)Nc1ccc(-c2nc(N3CCOCC3)c3cnn([C@H]4CCCNC4)c3n2)cc1` [Compound 873, 1-methyl-3-(4-{4-morpholin-4-yl-1-[(3S)-piperidin-3-yl]-1H-pyrazolo[3,4-d]pyrimidin-6-yl}phenyl)urea], the pIC50 in assay [1] (Homo sapiens, LNCaP, 72 h) was 6.39; in assay [2], 7.13; in assay [3] (Homo sapiens, 72 h), 6.14.
Regarding `CC(C)C(=O)N1CCC(n2ncc3c(N4CCOCC4)nc(-c4ccc(NC(=O)NCCF)cc4)nc32)CC1` [Compound 825, 1-(2-fluoroethyl)-3-{4-[1-(1-isobutyrylpiperidin-4-yl)-4-morpholin-4-yl-1H-pyrazolo[3,4-d]pyrimidin-6-yl]phenyl}urea], the pIC50 is 6.82 in assay [1] (Homo sapiens, LNCaP, 72 h); 5.78 in assay [2]; 6.21 in assay [3] (Homo sapiens, 72 h).
Turning to `CNC(=O)Nc1ccc(-c2nc(N3CCOCC3)c3cnn(C4CCN(C(=O)C(C)C)CC4)c3n2)cc1` [Example 475, 1-{4-[1-(1-isobutyrylpiperidin-4-yl)-4-morpholin-4-yl-1H-pyrazolo[3,4-d]pyrimidin-6-yl]phenyl}-3-methylurea], the negative-log IC50 (pIC50) was 6.82 in assay [1] (Homo sapiens, LNCaP, 72 h); 6.83 in assay [2]; 6.52 in assay [3] (Homo sapiens, 72 h).
The corresponding values for `c1ccc(-n2ncc3c(N4CCOCC4)nc(-c4ccc[nH]4)nc32)cc1` [Compound 6] are 5.62, 5.87 and 4.96.
Take `CCCOC(=O)N1CCC(n2ncc3c(N4CCOCC4)nc(-c4ccc(NC(=O)NCCF)cc4)nc32)CC1` [Compound 854, propyl 4-[6-(4-{[(2-fluoroethyl)carbamoyl]amino}phenyl)-4-morpholin-4-yl-1H-pyrazolo[3,4-d]pyrimidin-1-yl]piperidine-1-carboxylate]: the pIC50 in assay [1] (Homo sapiens, LNCaP, 72 h) is 7.57; in assay [2], 6.22; in assay [3] (Homo sapiens, 72 h) it was 6.48.
The corresponding values for `NNC(=O)Nc1ccc(-c2nc(N3CCOCC3)c3cnn(C4CCN(C(=O)c5cccnc5)CC4)c3n2)cc1` [Example 306, N-(4-{4-morpholin-4-yl-1-[1-(pyridin-3-ylcarbonyl)piperidin-4-yl]-1H-pyrazolo[3,4-d]pyrimidin-6-yl}phenyl)hydrazinecarboxamide] are 5.00, 6.40 and 4.85.
The like results for `Fc1ccc(CN2CCC(n3ncc4c(N5CCOCC5)nc(-c5ccc6[nH]ccc6c5)nc43)CC2)cn1` [Example 172, 1-{1-[(6-fluoropyridin-3-yl)methyl]piperidin-4-yl}-6-(1H-indol-5-yl)-4-morpholin-4-yl-1H-pyrazolo[3,4-d]pyrimidine] were, in that order, 6.00, 6.44 and 5.77.
Regarding `O=C(Nc1ccc(-c2nc(N3CCOCC3)c3cnn(C4CCN(C(=O)c5cccnc5)CC4)c3n2)cc1)Nc1ccsc1` [Compound 658, 1-(4-{4-morpholin-4-yl-1-[1-(pyridin-3-ylcarbonyl)piperidin-4-yl]-1H-pyrazolo[3,4-d]pyrimidin-6-yl}phenyl)-3-(3-thienyl)urea], the results for the pIC50 in assay [1], in assay [2] and in assay [3] were 7.40, 7.74 and 7.12, respectively.
As to `CC#CCOC(=O)N1CCC(n2ncc3c(N4CCOCC4)nc(-c4ccc(NC(=O)NC)cc4)nc32)CC1` [Compound 801, but-2-yn-1-yl 4-(6-{4-[(methylcarbamoyl)amino]phenyl}-4-morpholin-4-yl-1H-pyrazolo[3,4-d]pyrimidin-1-yl)piperidine-1-carboxylate], the negative-log IC50 (pIC50) in assay [1] (Homo sapiens, LNCaP, 72 h) was 7.51; in assay [2] it was 7.30; in assay [3] (Homo sapiens, 72 h), 6.92.
In the case of `CS(=O)(=O)Nc1cccc(-c2nc(N3CCOCC3)c3cnn(C4CCN(Cc5ccccc5)CC4)c3n2)c1` [Compound 84], the negative logarithm of the IC50 (pIC50) in assay [1] (Homo sapiens, LNCaP, 72 h) was 4.92; in assay [2], 5.38; in assay [3] (Homo sapiens, 72 h) it was 4.92.
On to `CNC(=O)Nc1ccc(-c2nc(N3CCOCC3)c3cnn(C4CCC5(CC4)OCCO5)c3n2)cc1` [Example 321, 1-{4-[1-(1,4-dioxaspiro[4.5]dec-8-yl)-4-morpholin-4-yl-1H-pyrazolo[3,4-d]pyrimidin-6-yl]phenyl}-3-methylurea], for which the pIC50 in assay [1] (Homo sapiens, LNCaP, 72 h) was 7.57; in assay [2], 7.13; in assay [3] (Homo sapiens, 72 h), 7.00.
In the case of `CC(C)C(=O)N1CCC(n2ncc3c(N4CCOCC4)nc(-c4cccc(O)c4)nc32)CC1` [Example 29], the pIC50 in assay [1] (Homo sapiens, LNCaP, 72 h) was 6.40; in assay [2] it was 7.23; in assay [3] (Homo sapiens, 72 h) it was 5.92.
The like results for `NC(=O)c1cccc(-c2nc(N3CCOCC3)c3cnn(C4CCN(Cc5ccccc5)CC4)c3n2)c1` [Compound 82] were, in that order, 4.89, 6.06 and 4.54.
On to `CNC(=O)Nc1ccc(-c2nc(N3CCOCC3)c3cnn(C4CCN(Cc5ccc(OC)c(O)c5)CC4)c3n2)cc1` [Example 398, 1-(4-{1-[1-(3-hydroxy-4-methoxybenzyl)piperidin-4-yl]-4-morpholin-4-yl-1H-pyrazolo[3,4-d]pyrimidin-6-yl}phenyl)-3-methylurea], for which the pIC50 in assay [1] (Homo sapiens, LNCaP, 72 h) was 6.82; in assay [2], 7.24; in assay [3] (Homo sapiens, 72 h), 6.22.
As to `COC(=O)Nc1ccc(-c2nc(N3CCOCC3)c3cnn(C4CCN(Cc5ccc(F)cc5)CC4)c3n2)cc1` [Compound 694, methyl (4-{1-[1-(4-fluorobenzyl)piperidin-4-yl]-4-morpholin-4-yl-1H-pyrazolo[3,4-d]pyrimidin-6-yl}phenyl)carbamate], the pIC50 in assay [1] is 5.92; in assay [2], 6.12; in assay [3] it was 5.59.
The like results for “methyl [4-(1-{1-[(6-fluoropyridin-3-yl)methyl]piperidin-4-yl}-4-morpholin-4-yl-1H-pyrazolo[3,4-d]pyrimidin-6-yl)phenyl]carbamate [Compound 697]” were, in that order, 6.05, 5.92 and 5.22.
The like results for `COC(=NC#N)Nc1ccc(-c2nc(N3CCOCC3)c3cnn(C4CCN(Cc5cccnc5)CC4)c3n2)cc1` [Compound 654, methyl N′-cyano-N-(4-{4-morpholin-4-yl-1-[1-(pyridin-3-ylmethyl)piperidin-4-yl]-1H-pyrazolo[3,4-d]pyrimidin-6-yl}phenyl)imidocarbamate] were, in that order, 5.66, 6.23 and 5.89.
For the compound `CC(C)N1CCC(n2ncc3c(N4CCOCC4)nc(-c4ccc5[nH]ccc5c4)nc32)CC1` [Compound 238, 6-(1H-indol-5-yl)-1-(1-isopropylpiperidin-4-yl)-4-morpholin-4-yl-1H-pyrazolo[3,4-d]pyrimidine], the pIC50 in assay [1] (Homo sapiens, LNCaP, 72 h) is 5.60; in assay [2] it was 5.43; in assay [3] (Homo sapiens, 72 h), 5.54.
`CNC(=O)Nc1ccc(-c2nc(N3CCOCC3)c3cnn(C4CCN(C(=O)c5ccccc5Cl)CC4)c3n2)cc1` [Compound 601, 1-(4-{1-[1-(2-chlorobenzoyl)piperidin-4-yl]-4-morpholin-4-yl-1H-pyrazolo[3,4-d]pyrimidin-6-yl}phenyl)-3-methylurea]: the pIC50 in assay [1] (Homo sapiens, LNCaP, 72 h) was over 7.57; in assay [2], 7.10; in assay [3] (Homo sapiens, 72 h) it was over 7.57.
For the compound `COC(=O)Nc1ccc(-c2nc(N3CCOCC3)c3cnn(C4CCN(C(=O)N(C)C)CC4)c3n2)cc1` [Compound 808, methyl (4-{1-[1-(dimethylcarbamoyl)piperidin-4-yl]-4-morpholin-4-yl-1H-pyrazolo[3,4-d]pyrimidin-6-yl}phenyl)carbamate], the pIC50 in assay [1] (Homo sapiens, LNCaP, 72 h) was 6.37; in assay [2], 5.58; in assay [3] (Homo sapiens, 72 h) it was 6.16.
In the case of `CN1CCC(n2ncc3c(N4CCOCC4)nc(-c4ccc5[nH]ccc5c4)nc32)CC1` [Compound 124], the pIC50 in assay [1] (Homo sapiens, LNCaP, 72 h) was 6.08; in assay [2], 6.07; in assay [3] (Homo sapiens, 72 h) it was 5.77.
Regarding `CC(=O)Nc1ccc(-c2nc(N3CCOCC3)c3cn[nH]c3n2)cc1` [Compound 926, N-[4-(4-morpholin-4-yl-1H-pyrazolo[3,4-d]pyrimidin-6-yl)phenyl]acetamide], the pIC50 in assay [1] was 5.43; in assay [2] it was 6.35; in assay [3], 5.07.
Turning to `COc1ccc(C(=O)N2CCC(n3ncc4c(N5CCOCC5)nc(-c5cccc(O)c5)nc43)CC2)cc1` [Compound 28, 3-{1-[1-(4-methoxybenzoyl)piperidin-4-yl]-4-morpholin-4-yl-1H-pyrazolo[3,4-d]pyrimidin-6-yl}phenol], the pIC50 is 6.66 in assay [1] (Homo sapiens, LNCaP, 72 h); 7.48 in assay [2]; 5.96 in assay [3] (Homo sapiens, 72 h).
